Source: patent publication US12098176B2, “Keratin BD-4, preparation method, and pharmaceutical composition and use thereof” (Institute of Materia Medica, Chinese Academy of Medical …, priority 2019, dated 2024)
Counter-ions that a name gives are not always drawn. Marks after values point to notes of the source that are not given here.

Key:
[1] = tested on: mice cough induced by ammonia water; experiment: Antitussive test, cough induced by ammonia water in mice; format: in vivo, mouse
Protocol: Experimental example 6 The effect of protein BD-4 (Example 4 protein) on the antitussive effect of the cough induced by ammonia water in mice. Animals: male ICR mice; Drugs and reagents: dextromethorphan hydrobromide, ammonia, 0.2% CMC-Na, protein BD-4; Apparatus: Compressed nebulizer (403T type), balance (XS105DU type). Experiment Grouping: • Solvent control group; • Dextromethorphan 15 mg/kg group; • Protein BD-4, 20 mg/kg group, 50 mg/kg group. Method: Model Preparation and Administration:
Dextromethorphan and different doses of protein BD-4 (administration volume 10 ml/kg) were given orally in groups, and the solvent control group was given the same volume of distilled water. One hour later, it was put into a sealed box and atomized 10% ammonia water for 10 seconds, and then observed and recorded the incubation period of cough in mice and the number of coughs in 2 minutes.
Record the time point of oral administration, the time point of atomization experiment, the incubation period of mice cough and the number of coughs within 2 minutes, respectively. The incubation period of cough refers to the number of seconds from the start of the atomization of ammonia to the occurrence of cough. The performance of coughing in mice is based on contraction of their abdominal muscles (breast contraction) and opening their mouths at the same time. Calculate the mean and standard error of each group of data, use TTEST to compare the model group with other groups, and P<0.05 is considered as a significant difference.

[2] = tested on: PLO-induced epilepsy in mice; experiment: Pilocarpine (PLO) induced convulsive epilepsy in mice; format: in vivo, mouse; conditions: Diazepam 2 mg/kg
Protocol: Experimental example 3 The pharmacodynamic test of protein BD-4 (Example 4 protein) on convulsive epilepsy in mice caused by the convulsion agent Pilocarpine (PLO)
Model group: • Diazepam (Diazepam) 2 mg/kg group; • Protein BD-4, 50 mg/kg group, 200 mg/kg group. Method: Model Preparation and Administration:
The drug was administered once in the afternoon the day before modeling, PLO-225 mg/kg (modeling agent) was injected intraperitoneally 1 hour after the test drug was given to the stomach on the day of modeling. And positive drug can be administered once 20 minutes before modeling. Observe for 30 minutes after PLO injection.
Observation indicators: 1) Seizure situation: the time of seizures from grade II to grade IV; 2) the time to death.
Attack level: Refer to Racine grading standard: Level 0: No response; Grade I: manifested as twitching of facial muscles or the corners of the mouth; Level II: can nod; Level III: Twitching of one limb; Grade IV: rigidity or body twitching; Grade V: generalized epilepsy (generalized tonic seizures).
Count the number of grade IV seizures and deaths in each group of mice in the experiment; Level II, III and IV incubation period. […] Chi-square test was used for statistics of the number of cases. The mean value and standard error of the incubation period were calculated, and TTEST was used to compare the model group with other groups. P<0.05 was considered as a significant difference.

[3] = tested on: PTZ-induced epilepsy in mice; experiment: Pentylenetetrazole (PTZ) induced epilepsy in mice; format: in vivo, mouse; conditions: Retigabine 60 mg/kg
Protocol: Experiment Grouping: • Model group; • Retigabine 60 mg/kg group; • Protein BD-4, 50 mg/kg group, 200 mg/kg group; Method: Model Preparation and Administration:
Administer once in the afternoon the day before modeling, On the day of modeling, intraperitoneal injection of PTZ-65 mg/kg (modeling agent) 1 hour after gavage of the test drug, the positive drug can be administered once half an hour before modeling. Continue to observe for 15 minutes after injection of PTZ.
Observation index: 1) Seizure condition: Onset time of grade III to grade VI; 2) Death situation
Onset level: Refer to Racine grading standard: Level 0: No response; Grade I: manifested as twitching of facial muscles or the corners of the mouth; Level II: Can nod; Grade III: twitching of one limb; Grade IV: Rigidity or body twitching; Grade V: Generalized epilepsy (Generalized tonic seizures).
Count the number of seizures and deaths in each group of mice in the experiment; Level III and IV incubation period. The incubation period of mice that have not attacked to grade IV is recorded as the maximum of 900 seconds. Chi-square test was used for statistics of the number of cases. Calculate the mean and standard error of the incubation period. Use TTEST to compare the model group with other groups, and P<0.05 is considered as a significant difference.

[4] = tested on: yeast-induced fever model in rats; experiment: Yeast-induced fever model in SD rats; format: in vivo, rat
Protocol: Experimental example 1 The pharmacodynamic test of protein BD-4 (the protein in Example 4) on the fever model of SD rats induced by yeast
• Normal control group; • Model group: yeast fever model; • Positive control group: Aspirin 300 mg/kg group; • Protein BD-4, 10 mg/kg group, 50 mg/kg group. Method:
(§1) Preparation of experimental animals: After the experimental animals adapt to the experimental environment (temperature 22° C.±2° C., relative humidity 50%±2%) for 1 day. Pre-adaptation to measure rectal temperature at 8:00 and 15:00, Rats were fasted and water was taken freely 12 h before experiment. let the animal to empty its feces before measuring the rectal temperature. Apply petroleum jelly to the electronic thermometer probe before each temperature measurement. Insert the rat rectum 2 cm (can be marked at 2 cm to ensure that the depth of each insertion is consistent), and record the body temperature after the reading is stable.
(§2) Subcutaneous injection of dry yeast to replicate rat fever model: The body temperature of the rats was measured before modeling. Qualified rats with a body temperature of 36.2-37.3° C. were selected and randomly divided into groups with 8 rats in each group. After oral administration of aspirin and different doses of protein BD-4, 20% yeast suspension (10 ml/kg) was injected subcutaneously immediately, and the normal control group was injected intraperitoneally with an equal volume of normal saline. the rats' body temperature was monitored after 2 hours for a total of 8 hours.
(§3) According to the body temperature measured at each time point on the day of the experiment, calculate the mean, standard deviation and standard error of the body temperature of each group of rats. The data of each group was compared with TTEST, and P<0.05 was considered as a significant difference.

[5] = tested on: lipopolysaccharide (LPS) induced fever in rats; experiment: Lipopolysaccharide (LPS) induced fever in SD rats; format: in vivo, rat
Protocol: Experimental example 2 The pharmacodynamic test of protein BD-4 (Example 4 protein) on lipopolysaccharide (LPS) induced fever in SD rats.
Experiment Grouping: • Model group: lipopolysaccharide fever model; • Positive control group: Aspirin 300 mg/kg group, • Protein BD-4, 10 mg/kg group, 50 mg/kg group. Method: the method of intraperitoneal injection of Lipopolysaccharide to create fever model in rats.
as §1, with “experiment. before the experiment,” for “experiment.”
as §2, with “Intraperitoneal” for “Subcutaneous”, “lipopolysaccharide” for “dry yeast”, “lipopolysaccharide (20 μg/kg, 2” for “20% yeast suspension (10”, “intraperitoneally” for “subcutaneously”
as §3

[6] = tested on: acetic acid writhing of ICR mice; experiment: Acetic acid writhing test in ICR mice; format: in vivo, mouse
Protocol: Experimental example 7 The pharmacodynamic test of protein BD-4 (Example 4 protein) on acetic acid writhing in ICR mice. Animals: male ICR mice; Drugs and reagents: aspirin, physiological saline, glacial acetic acid, protein BD-4. Experiment Grouping:
One day after the experimental animals adapt to the environment, Aspirin 300 mg/kg, protein BD-4 50 mg/kg, 200 mg/kg were given orally one hour in advance, and the administration volume was 10 ml/kg; Then, 0.6% acetic acid solution was injected into the abdominal cavity, and the latency period (seconds) and frequency of writhing in the animal was observed within 15 minutes.
Calculate the mean and standard error of the data in each group. Compared with the model group by TTEST, P<0.05 was considered as statistically different.
0.6% acetic acid solution was injected into the abdominal cavity of mice, which caused deep and large area and long-term painful stimulation, causing the mice to writhe (the abdomen was contracted into an “S” shape, the trunk and hind legs were stretched, the buttocks were raised and the hips Row). The incubation time and the number of times the mice began to writhe were used as the pain response index to determine whether the test sample had analgesic effect. […] Compared with the model group, P<0.05, which is statistically significant.

[7] = dextromethorphan 15 mg/kg, P<0.05
[8] = aspirin 300 mg/kg oral, 0.6% acetic acid i.p., within 15 minutes

COc1ccc2c(c1)[C@]13CCCC[C@@H]1[C@H](C2)N(C)CC3 [Dextromethorphan, dextromethorphan hydrobromide, reference compound]
Incubation period ([1]; Dextromethorphan 15 mg/kg oral, cough latency, X ± SEM): 39.2 ± 2.8 s
Number of coughs ([1]; Dextromethorphan 15 mg/kg oral, within 2 minutes, X ± SEM): 40.2 ± 3.5
Cough incubation period vs solvent control group [1, 7]: significant improvement
Number of coughs vs solvent control group [1, 7]: significant improvement

CN1C(=O)CN=C(c2ccccc2)c2cc(Cl)ccc21 [Diazepam, reference compound]
Grade IV seizure rate ([2]; 10 mice, PLO 225 mg/kg i.p.): 0**
mortality rate ([2]; 10 mice, PLO 225 mg/kg i.p.): 0
Level II onset incubation period ([2]; mean ± SEM): 118 ± 9 s
Level III onset incubation period ([2]; mean ± SEM): 172 ± 13 s
Level IV onset incubation period ([2]; mean ± SEM, no grade IV attack recorded as 1800 s): 1800 ± 0 s
Number of deaths ([2]; of 10 mice, PLO 225 mg/kg i.p.): 0
Number of Grade IV cases ([2]; of 10 mice, PLO 225 mg/kg i.p., 30 min observation): 0**

CCOC(=O)Nc1ccc(NCc2ccc(F)cc2)cc1N [Retigabine, reference compound]
Grade IV seizure rate ([3]; 10 mice, PTZ 65 mg/kg i.p.): 10%**
mortality rate ([3]; 10 mice, PTZ 65 mg/kg i.p.): 0
Level III onset latency ([3]; mean ± SEM): 106 ± 12 s
Grade IV onset latency ([3]; mean ± SEM, no grade IV attack recorded as 900 s): 819 ± 81 s
Number of deaths ([3]; of 10 mice, PTZ 65 mg/kg i.p.): 0
Number of Grade IV cases ([3]; of 10 mice, PTZ 65 mg/kg i.p., 15 min observation): 1**

CC(=O)Oc1ccccc1C(=O)O [aspirin, reference compound]
Body temperature 2 hours after modeling ([4]; aspirin 300 mg/kg oral, 2 h after 20% yeast s.c.): 36.5 ± 0.1 °C
Body temperature 4 hours after modeling ([4]; aspirin 300 mg/kg oral, 4 h after 20% yeast s.c.): 36.9 ± 0.1 °C
Body temperature 6 hours after modeling ([4]; aspirin 300 mg/kg oral, 6 h after 20% yeast s.c.): 37.0 ± 0.1 °C
Body temperature 8 hours after modeling ([4]; aspirin 300 mg/kg oral, 8 h after 20% yeast s.c.): 37.2 ± 0.1 °C
Effect on increase in body temperature of model rats ([4]; aspirin 300 mg/kg, 4, 6 and 8 hours after modeling, vs model group P<0.05): effectively inhibit the increase in body temperature
Body temperature 2 hours after modeling ([5]; aspirin 300 mg/kg oral, 2 h after LPS 20 μg/kg i.p.): 36.9 ± 0.2 °C
Body temperature 4 hours after modeling ([5]; aspirin 300 mg/kg oral, 4 h after LPS 20 μg/kg i.p.): 37.0 ± 0.1 °C
Body temperature 6 hours after modeling ([5]; aspirin 300 mg/kg oral, 6 h after LPS 20 μg/kg i.p.): 36.9 ± 0.1 °C
Body temperature 8 hours after modeling ([5]; aspirin 300 mg/kg oral, 8 h after LPS 20 μg/kg i.p.): 36.9 ± 0.1 °C
Effect on increase in body temperature of model rats ([5]; aspirin 300 mg/kg, 2, 4, 6 and 8 hours after modeling, vs model group P<0.05): effectively inhibit the increase in body temperature
Frequency of writhing vs model group ([6]; Aspirin 300 mg/kg, P<0.05): reduce the frequency of writhing
Incubation period of writhing vs model group ([6]; Aspirin 300 mg/kg, P<0.05): significantly delay the incubation period of writhing
Number of twists [6, 8]: 16.7 ± 2.6 times
Writhing latency [6, 8]: 301.0 ± 30.4 s
